# Measurements taken from ChEMBL document CHEMBL4706518, “Discovery of MGS0274, an ester prodrug of a metabotropic glutamate receptor 2/3 agonist with improved oral bioavailability” (Eur J Med Chem, 2020).
# Tests used:
# [1] = Stability of compound in PBS at pH 6.5 assessed as remaining parent compound at 50 ug/ml after 1 hr by HPLC analysis; type: physicochemical; conditions: PBS at pH 6.5, pH 6.5, at 50 µg/mL, read-out: Stabilty
# [2] = Lipophilicity, logD of compound in n-octanol and phosphate buffered saline at 2 mg after 1.5 hrs by HPLC based shake flask method; type: physicochemical; conditions: for logD at 1.5 h: n-octanol/phosphate buffered saline
# [3] = Stability of compound in HCL at pH 1.2 assessed as remaining parent compound at 50 ug/ml after 1 hr by HPLC analysis; type: physicochemical; conditions: HCl at pH 1.2, pH 1.2, at 50 µg/mL, read-out: Stabilty
# [4] = Oral bioavailability in monkey at 4.92 umol/kg measured up to 24 hrs by LC-MS/MS analysis; type: ADME, organism-based, Macaca mulatta; conditions: rhesus monkey, in vivo, at 4.92 µmol/kg
SMILES,"remaining at 1 h, 50 ug/ml [1]",logD at 1.5 h [2],"remaining at 1 h, 50 ug/ml [3]",bioavailability [4],logD ([2]; 1.5 h)
CC(OC(=O)OC12CC3CC(CC(C3)C1)C2)OC(=O)[C@H]1[C@@H]2C[C@H](F)[C@@](N)(C(=O)O)[C@@H]21 (stereo partly drawn),97%,1.67,95%,,
Cc1oc(=O)oc1COC(=O)[C@@]1(N)[C@H]2[C@@H](C[C@@H]1F)[C@@H]2C(=O)O,54%,-0.95,95%,,
CC(C)(C)C(=O)OCOC(=O)[C@H]1[C@@H]2C[C@H](F)[C@@](N)(C(=O)O)[C@@H]21,99%,-0.54,100%,,
N[C@]1(C(=O)O)[C@H]2[C@@H](C[C@@H]1F)[C@@H]2C(=O)OC1OC(=O)c2ccccc21 (stereo partly drawn),97%,-0.71,99%,,
CC(OC(=O)OC1CCCCC1)OC(=O)[C@H]1[C@@H]2C[C@H](F)[C@@](N)(C(=O)O)[C@@H]21 (stereo partly drawn),97%,0.58,100%,18%,
Cc1oc(=O)oc1COC(=O)[C@H]1[C@@H]2C[C@H](F)[C@@](N)(C(=O)O)[C@@H]21,98%,-1.69,99%,,
CC(OC(=O)OC1CCCCC1)OC(=O)[C@@]1(N)[C@H]2[C@@H](C[C@@H]1F)[C@@H]2C(=O)O (stereo partly drawn),25%,,75%,,Nd(Unstable)

# Results, then the compound that gave them:
"remaining at 1 h, 50 ug/ml [1]",logD at 1.5 h [2],"remaining at 1 h, 50 ug/ml [3]",bioavailability [4],logD ([2]; 1.5 h),SMILES
101%,< -0.65,100%,,,CC(OC(=O)C(C)C)OC(=O)[C@H]1[C@@H]2C[C@H](F)[C@@](N)(C(=O)O)[C@@H]21 (stereo partly drawn)
100%,2.77,100%,58%,,CC(OC(=O)O[C@@H]1C[C@H](C)CC[C@H]1C(C)C)OC(=O)[C@H]1[C@@H]2C[C@H](F)[C@@](N)(C(=O)O)[C@@H]21 (stereo partly drawn)
,> 1.78,,,,CC(C)[C@@H]1CC[C@@H](C)C[C@H]1OC(=O)O[C@H](C)OC(=O)[C@H]1[C@@H]2C[C@H](F)[C@@](N)(C(=O)O)[C@@H]21
101%,0.06,102%,,,CC(C)OC(=O)OC(C)OC(=O)[C@H]1[C@@H]2C[C@H](F)[C@@](N)(C(=O)O)[C@@H]21 (stereo partly drawn)
